One assay has as its target KRas G12V (Homo sapiens, UniProt P01116, G12V). The assay is described as follows: biochemical. The conditions noted are these: Binding to KRas (IC50 nM) G12V, TR-FRET displacement, KRas G12V. On the technique in general: In TR-FRET formats the signal depends on donor and acceptor labels being close together.
In the next assay the target is KRas G12D (Homo sapiens, UniProt P01116, G12D). Nature of the assay: biochemical. The conditions noted are these: Binding to KRas (IC50 nM) G12D, TR-FRET displacement, KRas G12D.
A further assay concerns the target KRas G12R (Homo sapiens, UniProt P01116, G12R). The assay is described as follows: biochemical. The conditions noted are these: Binding to KRas (IC50 nM) G12R, TR-FRET displacement, KRas G12R.
Another assay has as its system ASPC1 cells. Nature of the assay: Inhibition of KRas-mediated phosphorylation of ERK (Cisbio HTRF pERK), ASPC1 cells. It counts as cell-based. The conditions noted are these: Homo sapiens, ASPC1, 3 h, AsPC-1 cells; 3 hr compound incubation; Cisbio pERK HTRF.
The subject of the next assay is H727 cells. Nature of the assay: Inhibition of KRas-mediated phosphorylation of ERK (Cisbio HTRF pERK), H727 cells. It counts as cell-based. The conditions noted are these: Homo sapiens, NCI-H727, 3 h, 3 hr compound incubation, Cisbio pERK HTRF.

The IC50 is the point on the concentration scale where inhibition reaches its midpoint. The low end stands for greater potency, the high end for weaker potency.

The structures appear in SMILES notation.

KRas G12V, sequence (P01116 1-169 isoform P01116-2 G12V): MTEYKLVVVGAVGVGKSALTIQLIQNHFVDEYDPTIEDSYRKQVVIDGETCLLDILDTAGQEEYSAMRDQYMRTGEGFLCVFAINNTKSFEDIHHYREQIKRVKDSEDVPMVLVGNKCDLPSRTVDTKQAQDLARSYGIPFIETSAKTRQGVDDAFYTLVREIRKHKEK
KRas G12D, sequence (P01116 1-169 isoform P01116-2 G12D): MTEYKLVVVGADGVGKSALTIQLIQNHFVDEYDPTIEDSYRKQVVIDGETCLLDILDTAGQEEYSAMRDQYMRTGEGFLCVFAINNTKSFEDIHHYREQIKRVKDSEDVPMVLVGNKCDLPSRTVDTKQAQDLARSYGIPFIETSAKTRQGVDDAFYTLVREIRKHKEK
KRas G12R, sequence (P01116 1-169 isoform P01116-2 G12R): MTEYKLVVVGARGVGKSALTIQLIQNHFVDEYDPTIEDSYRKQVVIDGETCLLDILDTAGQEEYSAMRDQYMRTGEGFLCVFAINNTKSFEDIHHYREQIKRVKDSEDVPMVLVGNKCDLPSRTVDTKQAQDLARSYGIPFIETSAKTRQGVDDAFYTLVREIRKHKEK

With `CCCCCCCCCCN(C)C(=O)c1cc2n(n1)CCCN(c1nc(OC[C@@]34CCCN3C[C@H](F)C4)nc3c1CCN(c1cc(O)cc4ccc(F)c(CC)c14)C3)C2` [Example 266, N-decyl-5-(7-(8-ethyl-7-fluoro-3-hydroxynaphthalen-1-yl)-2-(((2R,7aS)-2-fluorohexahydro-1H-pyrrolizin-7a-yl)methoxy)-5,6,7,8-tetrahydropyrido[3,4-d]pyrimidin-4-yl)-N-methyl-5,6,7,8-tetrahydro-4H-pyrazolo[1,5-a][1,4]diazepine-2-carboxamide], the IC50 is 104 nM on KRas G12V; 133 nM at KRas G12D; 254 nM at KRas G12R; 787 nM in the assay with ASPC1 cells; 1760 nM in the assay with H727 cells.
The corresponding values for `CCCCCCCCCCNC(=O)c1cc2n(n1)CCCN(c1nc(OC[C@@]34CCCN3C[C@H](F)C4)nc3c1CCN(c1cc(O)cc4ccc(F)c(CC)c14)C3)C2` [Example 267, N-decyl-5-(7-(8-ethyl-7-fluoro-3-hydroxynaphthalen-1-yl)-2-(((2R,7aS)-2-fluorohexahydro-1H-pyrrolizin-7a-yl)methoxy)-5,6,7,8-tetrahydropyrido[3,4-d]pyrimidin-4-yl)-5,6,7,8-tetrahydro-4H-pyrazolo[1,5-a][1,4]diazepine-2-carboxamide] are 123 nM, 148 nM, 256 nM, 3620 nM and 3950 nM.
Regarding `CCc1c(F)ccc2cc(O)cc(N3CCc4c(nc(OC[C@@]56CCCN5C[C@H](F)C6)nc4N4CCOCC(P(C)(C)=O)C4)C3)c12` (stereo partly drawn) [Example 281, (4-(7-(8-ethyl-7-fluoro-3-hydroxynaphthalen-1-yl)-2-(((2R,7aS)-2-fluorotetrahydro-1H-pyrrolizin-7a(5H)-yl)methoxy)-5,6,7,8-tetrahydropyrido[3,4-d]pyrimidin-4-yl)-1,4-oxazepan-6-yl)dimethylphosphine oxide], the IC50 was 6 nM at KRas G12V; 31 nM at KRas G12D; 11 nM at KRas G12R; more than 10000 nM in the assay on ASPC1 cells; 4440 nM in the assay on H727 cells.
For the compound `CCc1c(F)ccc2cc(O)cc(N3CCc4c(nc(N5CC(N)C5)nc4N4CCC[C@@](C)(O)C4)C3)c12` [Example 486, (R)-1-(2-(3-aminoazetidin-1-yl)-7-(8-ethyl-7-fluoro-3-hydroxynaphthalen-1-yl)-5,6,7,8-tetrahydropyrido[3,4-d]pyrimidin-4-yl)-3-methylpiperidin-3-ol], the concentration for half-maximal inhibition (IC50) at KRas G12V was found to be 886 nM; on KRas G12D, 755 nM; at KRas G12R, 1160 nM.
Taken in the same sequence, the figures for `CCc1c(F)ccc2cc(O)cc(N3CCc4c(nc(OC[C@@]56CCCN5C[C@H](F)C6)nc4N4CCCC5(CCCC5)C4)C3)c12` [Example 489, 5-ethyl-6-fluoro-4-(2-(((2R,7aS)-2-fluorohexahydro-1H-pyrrolizin-7a-yl)methoxy)-4-(7-azaspiro[4.5]decan-7-yl)-5,6-dihydropyrido[3,4-d]pyrimidin-7(8H)-yl)naphthalen-2-ol] were 702 nM, 761 nM and 553 nM.
The corresponding values for `CCc1c(F)ccc2cc(O)cc(N3CCc4c(nc(OC[C@@]56CCCN5C[C@H](F)C6)nc4N4CCCC5(C4)NC(=O)N(C)C5=O)C3)c12` (stereo partly drawn) [Example 644, 7-(7-(8-ethyl-7-fluoro-3-hydroxynaphthalen-1-yl)-2-(((2R,7aS)-2-fluorotetrahydro-1H-pyrrolizin-7a(5H)-yl)methoxy)-5,6,7,8-tetrahydropyrido[3,4-d]pyrimidin-4-yl)-3-methyl-1,3,7-triazaspiro[4.5]decane-2,4-dione] are 14 nM, 16 nM and 13 nM.
`CCc1cccc2cccc(N3CCc4c(nc(OCC5(CN(C)C)CC5)nc4N4CCCC(c5ncc[nH]5)C4)C3)c12` (centres unmarked) [Example 685, 1-(1-(((4-(3-(1H-imidazol-2-yl)piperidin-1-yl)-7-(8-ethylnaphthalen-1-yl)-5,6,7,8-tetrahydropyrido[3,4-d]pyrimidin-2-yl)oxy)methyl)cyclopropyl)-N,N-dimethylmethanamine]: the IC50 came to 1860 nM on KRas G12V and 1650 nM at KRas G12D.
For `CCc1cccc2cccc(N3CCc4c(nc(OCC5(CN(C)C)CC5)nc4NCc4nnc5n4CCCCC5)C3)c12` [Example 686, 2-((1-((dimethylamino)methyl)cyclopropyl)methoxy)-7-(8-ethylnaphthalen-1-yl)-N-((6,7,8,9-tetrahydro-5H-[1,2,4]triazolo[4,3-a]azepin-3-yl)methyl)-5,6,7,8-tetrahydropyrido[3,4-d]pyrimidin-4-amine], the half-maximal inhibitory concentration (IC50) at KRas G12V is 4520 nM; on KRas G12D it was 5250 nM.
With `CCc1cccc2cccc(N3CCc4c(nc(OCC5(CN(C)C)CC5)nc4N4CCCC(c5nc(C)c(C)[nH]5)C4)C3)c12` (centres unmarked) [Example 687, 1-(1-(((4-(3-(4,5-dimethyl-1H-imidazol-2-yl)piperidin-1-yl)-7-(8-ethylnaphthalen-1-yl)-5,6,7,8-tetrahydropyrido[3,4-d]pyrimidin-2-yl)oxy)methyl)cyclopropyl)-N,N-dimethylmethanamine], the IC50 on KRas G12V was found to be 6230 nM; on KRas G12D it was 10800 nM.
The corresponding values for `CCc1cccc2cccc(N3CCc4c(nc(OCC5(CN(C)C)CC5)nc4N4CCCC(c5ccn(C)n5)C4)C3)c12` (centres unmarked) [Example 689, 1-(1-(((7-(8-ethylnaphthalen-1-yl)-4-(3-(1-methyl-1H-pyrazol-3-yl)piperidin-1-yl)-5,6,7,8-tetrahydropyrido[3,4-d]pyrimidin-2-yl)oxy)methyl)cyclopropyl)-N,N-dimethylmethanamine] are 4310 nM and 7420 nM.
The corresponding values for `CCc1cccc2cccc(N3CCc4c(nc(OCC5(CN(C)C)CC5)nc4N4CCCC(c5nc(=O)[nH][nH]5)C4)C3)c12` (centres unmarked) [Example 690, 5-(1-(2-((1-((dimethylamino)methyl)cyclopropyl)methoxy)-7-(8-ethylnaphthalen-1-yl)-5,6,7,8-tetrahydropyrido[3,4-d]pyrimidin-4-yl)piperidin-3-yl)-1,2-dihydro-3H-1,2,4-triazol-3-one] are 1360 nM and 5440 nM.
For `CCc1cccc2cccc(N3CCc4c(nc(OCC5(CN(C)C)CC5)nc4NCc4nnc(C5CCOC5)[nH]4)C3)c12` (centres unmarked) [Example 691, 2-((1-((dimethylamino)methyl)cyclopropyl)methoxy)-7-(8-ethylnaphthalen-1-yl)-N-((5-(tetrahydrofuran-3-yl)-4H-1,2,4-triazol-3-yl)methyl)-5,6,7,8-tetrahydropyrido[3,4-d]pyrimidin-4-amine], the IC50 was 5300 nM on KRas G12V and 7300 nM at KRas G12D.
As to `CCc1cccc2cccc(N3CCc4c(nc(OCC5(CN(C)C)CC5)nc4N4CCCC(c5nccn5C)C4)C3)c12` (centres unmarked) [Example 692, 1-(1-(((7-(8-ethylnaphthalen-1-yl)-4-(3-(1-methyl-1H-imidazol-2-yl)piperidin-1-yl)-5,6,7,8-tetrahydropyrido[3,4-d]pyrimidin-2-yl)oxy)methyl)cyclopropyl)-N,N-dimethylmethanamine], the figures for the IC50 at KRas G12V and at KRas G12D were 8850 nM and 16100 nM, respectively.

The values are drawn from patent publication US20250368649A1, “TETRAHYDROPYRIDOPYRIMIDINE PAN-KRAS INHIBITORS” (Mirati Therapeutics, Inc., priority 2022, published 2025).
